Test results published in patent US11925612B2, “Bactericidal and virucidal pharmaceutical composition” (Quimica Luar SRL, priority 2015, dated 2024).
Read-outs that look alike come from different tables or passages of the source.

How the values were obtained:
P. aeruginosa = assay: Bactericidal test: CFU count after incubation in PBS buffer; format: cell-based, Pseudomonas aeruginosa
[1] = tested on: artificial biofilm of P. aeruginosa; assay: Antimicrobial effect on artificial biofilm (2% alginate solution); format: cell-based, Pseudomonas aeruginosa; settings: Biofilm (2% alginate) + ionic strength (1 M NaCl), 4 hours at 37° C., control 2,000,000, Example 21
Description: Work consisted of incubating bacterial populations of a known load in terms of CFU/mL with the compounds mentioned in different molar concentrations. In vitro test batteries were organized at different doses or concentrations and in 1.5 mL Eppendorf tubes without the addition of culture medium. To this purpose, a PBS 100 mM phosphate buffer was used to maintain physiological conditions throughout the period of each test at 37° C. […] Each plate was added with 5 uL of a solution of 2,3,5-metabolic dye triphenyltetrazolium of chloride (TTC) 1% to enhance the contrast of colonies. Plates were incubated in inverted position, in a culture stove for 24-48 hours at 37° C. and subsequently the direct count was done, adjusted by dilution factors and seeding to report results in terms of CFU/mL. […] Treatments lasted 4 hours at 37° C.

[2] = tested on: Herpes Simplex 1 virus (HSV); format: cell-based; settings: Ibuprofen at 50 mM, virus incubated 60 minutes at 37° C.
[3] = tested on: BVDV bovine diarrhea virus; format: cell-based; settings: Ibuprofen at 50 mM, virus incubated 60 minutes at 37° C.
[4] = tested on: vesicular stomatitis virus (VSV); format: cell-based; settings: Ibuprofen at 50 mM, virus incubated 60 minutes at 37° C.
[5] = tested on: Rubella virus strain (MV); format: cell-based; settings: Ibuprofen at 50 mM, virus incubated 60 minutes at 37° C.
[6] = solubilised in water; cited from earlier work
Burkhordelia cepacia = format: cell-based; settings: 4 h incubation at 37° C., control 130,000, Example 10
Description: In this case, tests were run on a non-nutritive liquid carrier (buffer solution) wherein the antimicrobial agent is mixed with quantified inocula of pure bacterial cultures. After different incubation times, the material is seeded on agar plates to perform quantification assays on the number of bacterias surviving the treatment.
When the time for each assay finished, aliquots of 100 uL and decimal dilutions of each tube which were seeded on petri dishes for the direct count of colony forming units (CFU) in Mueller Hinton agar (MHA), using pour-plating or spread-plating standard methods.
During testing, the medium was stored in thermostatic bath between 45-50° C. because the seeding technique requires imbibing and integrating bacteria in the medium.

Compound: NC[C@H]1O[C@H](O[C@H]2[C@H](O)[C@@H](O[C@H]3O[C@H](CO)[C@@H](O)[C@H](N)[C@H]3O)[C@H](N)C[C@@H]2N)[C@H](N)C[C@@H]1O [Tobramycin, tobramycin]
- P. aeruginosa (UFC/mL ± 10) (P. aeruginosa; Tobramycin 0.25 mM with ClNa (1M), 4 h at 37° C., control 1,000,000, Example 20): 400,000 UFC/mL
- P. aeruginosa (UFC/mL ± 10) (P. aeruginosa; Tobramycin 1 mM with ClNa (1M), 4 h at 37° C., control 1,000,000, Example 20): 10 UFC/mL
- P. aeruginosa (UFC/mL ± 10) (P. aeruginosa; Tobramycin 1 mM, 1 hour, 37° C., control 2,000,000, Example 19): 1,000,000 UFC/mL
- P. aeruginosa (UFC/mL ± 10) (P. aeruginosa; Tobramycin 1 mM, 4 hours, 37° C., control 2,000,000, Example 19): 30,000 UFC/mL
- P. aeruginosa (UFC/mL ± 10) (P. aeruginosa; Tobramycin 1 mM, O.N., 37° C., control 2,000,000, Example 19): 30,000 UFC/mL
- P. aeruginosa (UFC/mL ± 10) (P. aeruginosa; Tobramycin 2.5 mM, 1 hour, 37° C., control 2,000,000, Example 19): 60,000 UFC/mL
- P. aeruginosa (UFC/mL ± 10) (P. aeruginosa; Tobramycin 2.5 mM, 4 hours, 37° C., control 2,000,000, Example 19): 20,000 UFC/mL
- P. aeruginosa (UFC/mL ± 10) (P. aeruginosa; Tobramycin 2.5 mM, O.N., 37° C., control 2,000,000, Example 19): 10 UFC/mL
- P. aeruginosa (UFC/mL ± 10) (P. aeruginosa; Tobramycin 5 mM with ClNa (1M), 4 h at 37° C., control 1,000,000, Example 20): 10 UFC/mL
- P. aeruginosa (UFC/mL ± 10) (P. aeruginosa; Tobramycin 5 mM, 1 hour, 37° C., control 2,000,000, Example 19): 30,000 UFC/mL
- P. aeruginosa (UFC/mL ± 10) (P. aeruginosa; Tobramycin 5 mM, 4 hours, 37° C., control 2,000,000, Example 19): 1,000 UFC/mL
- P. aeruginosa (UFC/mL ± 10) (P. aeruginosa; Tobramycin 5 mM, O.N., 37° C., control 2,000,000, Example 19): 10 UFC/mL
- P. aeruginosa (UFC/mL ± 10) (P. aeruginosa; Tobramycin 10 mM with ClNa (1M), 4 h at 37° C., control 1,000,000, Example 20): 10 UFC/mL
- P. aeruginosa (UFC/mL ± 10) (P. aeruginosa; Tobramycin 10 mM, 1 hour, 37° C., control 2,000,000, Example 19): 1,000 UFC/mL
- P. aeruginosa (UFC/mL ± 10) (P. aeruginosa; Tobramycin 10 mM, 4 hours, 37° C., control 2,000,000, Example 19): 10 UFC/mL
- P. aeruginosa (UFC/mL ± 10) (P. aeruginosa; Tobramycin 10 mM, O.N., 37° C., control 2,000,000, Example 19): 10 UFC/mL
- P. aeruginosa (UFC/mL ± 10) ([1]; 5 mM): 10 UFC/mL
- P. aeruginosa (UFC/mL ± 10) ([1]; 10 mM): 10 UFC/mL

Compound: CC(C)Cc1ccc(C(C)C(=O)O)cc1 (centres unmarked) [IBU-H, PROTONATED IBUPROFEN]
- P. aeruginosa (UFC/mL ± 10) (P. aeruginosa; IBU 10 mM, 4 h at 37° C., control 1,700,000, Example 4): 480,000 UFC/mL
- P. aeruginosa (UFC/mL ± 10) (P. aeruginosa; IBU 20 mM, 4 h at 37° C., control 1,700,000, Example 4): 200,000 UFC/mL
- P. aeruginosa (UFC/mL ± 10) (P. aeruginosa; IBU 50 mM, 4 h at 37° C., control 1,700,000, Example 4): 1000 UFC/mL
- P. aeruginosa (UFC/mL ± 10) (P. aeruginosa; IBU 100 mM, 4 h at 37° C., control 1,700,000, Example 4): 10 UFC/mL

Compound: [Cl-].[Na+] [NaCl]
- P. aeruginosa (UFC/mL ± 10) (P. aeruginosa; NaCl 0.01 M, 4 hours at 37° C., control 2,000,000, Example 11): 2,000,000 UFC/mL
- P. aeruginosa (UFC/mL ± 10) (P. aeruginosa; NaCl 0.025 M, 4 hours at 37° C., control 2,000,000, Example 11): 2,000,000 UFC/mL
- P. aeruginosa (UFC/mL ± 10) (P. aeruginosa; NaCl 0.1 M, 4 hours at 37° C., control 2,000,000, Example 11): 2,000,000 UFC/mL
- P. aeruginosa (UFC/mL ± 10) (P. aeruginosa; NaCl 0.25 M, 4 hours at 37° C., control 2,000,000, Example 11): 1,800,000 UFC/mL
- P. aeruginosa (UFC/mL ± 10) (P. aeruginosa; NaCl 0.5 M (line between 0.025 and 0.1), 4 hours at 37° C., control 2,000,000, Example 11): 2,000,000 UFC/mL
- P. aeruginosa (UFC/mL ± 10) (P. aeruginosa; NaCl 0.5 M (line between 0.25 and 1), 4 hours at 37° C., control 2,000,000, Example 11): 1,600,000 UFC/mL
- P. aeruginosa (UFC/mL ± 10) (P. aeruginosa; NaCl 1 M, 4 hours at 37° C., control 2,000,000, Example 11): 1,000,000 UFC/mL

Compound: CC(C)Cc1ccc(C(C)C(=O)O)cc1 (centres unmarked) [Ibuprofen, ibuprofen]
- Reduction of viral level [2]: >6.9 TCID50 mL-1
- Reduction of viral level [3]: >6.5 TCID50 mL-1
- Reduction of viral level [4]: >7.7 TCID50 mL-1
- Reduction of viral level [5]: >5.0 TCID50 mL-1
- critical micelle concentration (CMC) [6]: about 180 mM

Compound: COc1ccc2cc([C@H](C)C(=O)O)ccc2c1 [Naproxen]
- B. cepacia (UFC/mL ± 10) (Burkhordelia cepacia; Naproxen 10 mM): 125,000 UFC/mL
- B. cepacia (UFC/mL ± 10) (Burkhordelia cepacia; Naproxen 25 mM): 38,000 UFC/mL
- B. cepacia (UFC/mL ± 10) (Burkhordelia cepacia; Naproxen 50 mM): 31,000 UFC/mL
- B. cepacia (UFC/mL ± 10) (Burkhordelia cepacia; Naproxen 100 mM): 1,300 UFC/mL
